# Results as given in paper PMC6661809, “Lead optimization for promising monoamine oxidase inhibitor from eugenol for the treatment of neurological disorder: synthesis and in silico based study” (BMC Chemistry, 2019).
# Key:
# hMAO-A = target: T1, hMAO-A (Homo sapiens, UniProt P21397); assay: Recombinant human MAO-A inhibition screening (Amplex Red, p-tyramine); format: biochemical; details: for Selectivity index: IC50 (MAO-A)/IC50 (MAO-B); for IC50: recombinant hMAO-A, p-tyramine substrate, mean SEM
# T1 construct: purchased Sigma-Aldrich; host or cells: insect cells (BTI-TN-5B14) infected with recombinant baculovirus
# T1 sequence (P21397 1-527): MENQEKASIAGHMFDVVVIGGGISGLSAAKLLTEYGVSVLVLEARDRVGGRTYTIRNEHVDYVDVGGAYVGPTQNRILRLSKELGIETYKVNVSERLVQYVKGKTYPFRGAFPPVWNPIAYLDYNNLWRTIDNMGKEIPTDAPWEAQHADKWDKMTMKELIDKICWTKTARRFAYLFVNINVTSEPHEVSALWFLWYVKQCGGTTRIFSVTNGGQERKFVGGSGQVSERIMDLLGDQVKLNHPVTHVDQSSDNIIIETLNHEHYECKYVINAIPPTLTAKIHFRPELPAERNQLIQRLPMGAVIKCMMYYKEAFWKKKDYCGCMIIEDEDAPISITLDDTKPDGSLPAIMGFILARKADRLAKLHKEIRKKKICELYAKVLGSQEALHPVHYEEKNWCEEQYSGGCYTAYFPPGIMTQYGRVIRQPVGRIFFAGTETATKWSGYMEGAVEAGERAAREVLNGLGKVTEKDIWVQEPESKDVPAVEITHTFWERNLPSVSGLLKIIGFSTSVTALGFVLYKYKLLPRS
# Source text: (§1) To evaluate IC50 values for the inhibition of human MAO-A and MAO-B by newly synthesized compounds the commercially available recombinant human enzymes expressed in insect cells were used (Sigma-Aldrich). The MAO inhibition assay was based on the method described by Anderson et al., 1993 and Chimenti et al. with some modifications. The Amplex Red MAO Kit tyramine (Sigma-Aldrich) affords a suitable fluorimetric method to evaluate MAO enzyme action of synthetic and natural compounds. In the assay, MAO reacts with p-tyramine, a common substrate for both MAO isoforms, ensuing in the production of H2O2, which is identified by a fluorimetric method (λex = 530/λem = 585 nm). Each test well contained 0.1 mL of sodium phosphate buffer (0.05 M, pH 7.4), a range of concentrations of the eugenol based derivatives or reference compounds along with recombinant hMAO-A or hMAO-B in appropriate quantity. After the preparation of this mixture the wells were subjected to incubation for 15 min at 37 °C, placed in the dark fluorimeter chamber. Once this incubation period over, the process was rendered by mixing 200 µM Amplex Red reagent (Sigma-Aldrich), 1 U/mL horseradish peroxidase (Sigma-Aldrich) and p-tyramine (Sigma-Aldrich). Subsequently, the formation of hydrogen peroxide exerted by MAO isoforms was quantified by using Amplex-Red reagent, a non-fluorescent probe that reacts with H2O2 in the existence of horse radish peroxidase to generate the fluorescent component resorufin. Moreover, the control analysis was calculated in the absence of compound and reference inhibitors. The probability of compounds to change the fluorescence produced in the reaction mix due to non-enzymatic inhibition was assessed by mixing titled compounds to solutions of single Amplex Red reagent in a sodium phosphate buffer. Data were processed in Microsoft Excel, to calculate IC50 values.
# [1] = Hydrogen peroxide scavenging (H2O2) assay; details: Table 7, mean ± SEM, n = 3
# Protocol: Hydrogen peroxide generally turns into water and oxygen and produces highly toxic hydroxyl radical that renders the damage to DNA and peroxidation of lipid. H2O2 scavenging ability of eugenol based derivatives was evaluated by method described by Nakano and colleagues with some alteration. The hydrogen peroxide solution (40 mM) was prepared in phosphate buffer (40 mM pH 7.4) and addition of several ranges of synthesized derivatives (05–80 μg/mL) was done into H2O2 solution (2 mL). The determination of H2O2 concentration was done by UV/Vis Epoch ELISA reader at 230 nm upon incubation of 10 min. Solution of phosphate buffer without H2O2 was noted as blank reading. The hydrogen peroxide percentage inhibition was estimated through the formula [(AH − AD)/AO] × 100, where AH is the absorbance of the control and AD is the absorbance of compounds/reference taken as 05–80 μg/mL L-ascorbic acid.
# DPPH scavenging activity = details: Table 6, mean ± SEM, n = 3
# Protocol: Solutions of synthesized compounds were set in ethanol/water (1:1) having 10 mM to 100 mM at a period of 10 mM. The 0.01% DPPH· stock solution was prepared in ethanol/water (1:1). Samples were prepared as 5 mL DPPH· solution was mixed with 5 mL L-ascorbic acid solution then shaken vigorously and kept in the dark. Corresponding blank sample were prepared and L-ascorbic acid was used as reference standard. […] The actual decrease in absorption induced by the test was compared with the positive controls. The IC50 values were calculated use the dose inhibition curve in linear range by plotting the extract concentration versus the corresponding scavenging effect through following equation [(ADR − APR)/AO] × 100. Where ADR is the absorbance prior to reaction and APR is the absorbance after reaction with DPPH·.
# [2] = Ferric reducing antioxidant power (FRAP) assay; details: Table 9, mean ± SEM, n = 3;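 note: Ferrous-TPTZ reduction read as absorbance at 593 nm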
# Protocol: The capacity of antioxidants to decrease ferric iron is measured by this method. The reaction of […] (TPTZ) and complex ferric iron yields ferrous form at low pH. […] This method was adopted from the reports of Benzie et al..
# hMAO-B = target: T2, hMAO-B (Homo sapiens, UniProt P27338); assay: Recombinant human MAO-B inhibition screening (Amplex Red, p-tyramine); format: biochemical; details: p-tyramine substrate, mean SEM
# T2 construct: purchased Sigma-Aldrich; host or cells: insect cells (BTI-TN-5B14) infected with recombinant baculovirus
# T2 sequence (P27338 1-520): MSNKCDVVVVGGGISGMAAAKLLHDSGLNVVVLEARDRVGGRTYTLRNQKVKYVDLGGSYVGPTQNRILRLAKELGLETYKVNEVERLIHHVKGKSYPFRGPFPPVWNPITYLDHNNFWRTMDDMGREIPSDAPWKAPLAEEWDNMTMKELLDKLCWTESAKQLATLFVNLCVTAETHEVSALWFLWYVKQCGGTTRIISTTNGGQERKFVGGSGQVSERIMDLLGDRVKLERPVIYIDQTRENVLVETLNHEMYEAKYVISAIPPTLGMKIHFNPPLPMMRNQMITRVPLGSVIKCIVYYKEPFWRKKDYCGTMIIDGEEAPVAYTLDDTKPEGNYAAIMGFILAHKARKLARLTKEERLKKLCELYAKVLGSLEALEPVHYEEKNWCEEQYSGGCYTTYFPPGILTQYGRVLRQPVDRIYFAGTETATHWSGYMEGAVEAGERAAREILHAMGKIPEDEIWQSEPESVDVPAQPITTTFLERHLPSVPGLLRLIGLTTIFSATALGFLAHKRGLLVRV
# Source text: as §1
# [3] = Nitric oxide scavenging activity; details: Table 8, mean ± SEM, n = 3
# Source text: The generation of nitric oxide (NO·) on biological tissues is mediated by particular nitric oxide synthases enzyme that control the catabolism of the arginine to citrulline via creation of NO through a five electron oxidative reaction. At the physiological pH (7.2) in aqueous solution sodium nitroprusside decompose to produce NO·. Finally, NO· reacts with oxygen at underaerobic conditions and produces stable products (nitrate and nitrite), this amount can be determined by means of Griess reagent. The procedure for the nitric oxide scavenging activity was adopted from reports of Alam et al..
Selectivity index (hMAO-A),IC50 (hMAO-A) [µM],H2O2 scavenging IC50 [1] [µg/mL],DPPH scavenging IC50 (DPPH scavenging activity) [µg/mL],melting point [°C],FRAP IC50 [2] [µg/mL],IC50 (hMAO-B) [µM],Nitric oxide scavenging IC50 [3] [µg/mL],Compound
1.76,22.38 ± 0.067,15.7 ± 0.784,16.04 ± 0.026,157 to 159,14.63 ± 0.007,12.66 ± 0.021,14.63 ± 0.412,"C=CCc1ccc(OC(=O)c2ccccc2O)c(OC)c1 [Compound 13c, 4-allyl-2-methoxyphenyl 2-hydroxybenzoate]"
1.49,20.89 ± 0.023,14.4 ± 0.143,14.88 ± 0.018,182 to 184,12.45 ± 0.017,13.95 ± 0.005,11.23 ± 0.032,"C=CCc1ccc(OC(=O)c2ccccc2S)c(OC)c1 [Compound 13d, 4-allyl-2-methoxyphenyl 2-mercaptobenzoate]"
5.14,38.53 ± 0.018,26.6 ± 0.544,20.66 ± 0.032,199 to 200,18.14 ± 0.001,7.494 ± 0.014,20.23 ± 0.073,"C=CCc1ccc(OC(=O)c2ccc(O)c(OC)c2)c(OC)c1 [Compound 13a, 4-allyl-2-methoxyphenyl 4-hydroxy-3-methoxybenzoate]"
5.72,52.55 ± 0.038,12.5 ± 0.862,12.47 ± 0.014,178 to 179,10.77 ± 0.026,9.183 ± 0.034,11.74 ± 0.523,"C=CCc1ccc(OC(=O)c2ccc(O)cc2)c(OC)c1 [Compound 13b, 4-allyl-2-methoxyphenyl 4-hydroxybenzoate]"

# The next lines start with the compound.
Compound,Selectivity index (hMAO-A),IC50 (hMAO-A) [µM],H2O2 scavenging IC50 [1] [µg/mL],DPPH scavenging IC50 (DPPH scavenging activity) [µg/mL],melting point [°C],FRAP IC50 [2] [µg/mL],IC50 (hMAO-B) [µM],Nitric oxide scavenging IC50 [3] [µg/mL]
"C=CCc1ccc(OCC(=O)NNC(=O)c2ccccc2O)c(OC)c1 [Compound 9a, N′-(2-(4-allyl-2-methoxyphenoxy)acetyl)-2-hydroxybenzohydrazide]",0.22,10.84 ± 0.025,9.547 ± 0.051,9.514 ± 0.017,230 to 231,7.234 ± 0.001,47.7 ± 0.073,9.007 ± 0.014
"C=CCc1ccc(OCC(=O)NNC(=O)c2ccccc2S)c(OC)c1 [Compound 9b, N′-(2-(4-allyl-2-methoxyphenoxy)acetyl)-2-mercaptobenzohydrazide]",0.59,16.62 ± 0.004,9.393 ± 0.017,9.293 ± 0.028,210 to 211,9.912 ± 0.005,27.85 ± 0.054,8.095 ± 0.018
"O=C1O[C@H]([C@@H](O)CO)C(O)=C1O [L-Ascorbic acid, reference compound]",,,8.121 ± 0.082,8.58 ± 0.009,,8.112 ± 0.091,,7.523 ± 0.005
1-(2-(4-allylphenoxy)acetyl)-4-(4-hydroxybenzoyl)thiosemicarbazide [Compound 5a],0.53,15.85 ± 0.039,9.156 ± 0.002,9.152 ± 0.063,,5.934 ± 0.053,29.37 ± 0.048,7.156 ± 0.002
"C=CCc1ccc(OC(=O)/C=C\c2ccc(O)c(OC)c2)c(OC)c1 [Compound 16, (Z)-4-allyl-2-methoxyphenyl 3-(4-hydroxy-3-methoxyphenyl)acrylate]",0.14,7.348 ± 0.027,20.6 ± 0.856,27.70 ± 0.023,120 to 122,16.88 ± 0.099,49.15 ± 0.011,18.63 ± 0.654
C=CCc1ccc(OCC(=O)NNC(=S)NC(=O)c2cc(O)c(O)c(O)c2)c(OC)c1 [Compound 5b],0.19,5.989 ± 0.007,8.904 ± 0.034,8.304 ± 0.073,,5.112 ± 0.009,31.19 ± 0.016,6.456 ± 0.023
"C=CCc1ccc(OC(=O)/C=C\c2ccccc2)c(OC)c1 [Compound 17, (Z)-4-allyl-2-methoxyphenyl 3-phenylacrylate]",0.40,13.92 ± 0.051,30.4 ± 0.064,31.30 ± 0.014,,15.91 ± 0.003,34.2 ± 0.037,25.61 ± 0.076
"C=CCc1ccc(OCC(=O)NNC(=O)c2ccccn2)c(OC)c1 [Compound 11, N′-(2-(4-allyl-2-methoxyphenoxy)acetyl)picolinohydrazide]",0.67,18.06 ± 0.044,10.33 ± 0.022,11.21 ± 0.044,204 to 205,9.126 ± 0.013,26.8 ± 0.077,10.71 ± 0.743
